Test results taken from patent US5399696A, “Isoquinolinyl compounds which are intermediates” (Eli Lilly and Company, priority 1993, dated 1995).

Key:
[1] = target: AMPA receptor; assay: Radioligand binding: [^3 H]AMPA binding with crude membranes of rat forebrain
Experimental: (§1) The formula I compounds were tested for their ability to inhibit NMDA, AMPA, and kainic acid receptor binding to rat membranes in a radioligand binding assay using [^3 H]CGS19755, [^3 H]AMPA, and [^3 H]KA. For all radioligand binding assays, male Sprague-Dawley rats were used. […] Non-specific binding was determined using 10 μM L-glutamate. Samples were incubated in an ice-bath for 30 minutes, and bound ligand was separated from the free ligand by rapid filtration through WHATMAN GF/B glass fiber filters. Murphy et al, British J. Pharmacol., 95, 932-938 (1988). Kainate binding was performed using washed synaptosomal membranes from the rat forebrain as described by Simon et al. Simon et al, J. Neurochem., 26, 141-147 (1976). Tritiated kainate (5 nM) was added to 50 mM Tris-HCl buffer (pH 7.4 at 4° C.) containing 200-300 μg/ml of tissue protein. Samples were incubated for 30 minutes in an ice-bath, then rapidly filtered using a Brandel cell harvester and WHATMAN GF/C filters. Filters were washed twice with 3 ml of cold buffer. Non-specific binding was determined using 100 μM non-labeled kainate. The binding of [^3 H]AMPA (5 nM) was conducted with crude membranes of rat forebrain in the presence of 100 mM KSCN as described by Nielson et al. Nielson et al, Eur. J. Med. Chem. Chim. Ther., 21, 433-437 (1986). Non-specific binding was determined with 10 μM non-labeled AMPA. The concentration of the formula I compound that inhibited 50% binding (IC50, mean ±standard error, n=3) as calculated by linear regression of displacement data transformed to the Hill equation as described by Bennett. Bennett, Neurotransmitter Receptor Binding, 57-90 (1978).

[2] = target: NMDA receptor; assay: Radioligand binding: displacement of [^3 H]CGS19755 from synaptosomal membranes of rat forebrain (NMDA receptor affinity); conditions: [^3 H]CGS19755 10 nM, mean ± standard error (n = 3), values marked ^c single experiment
Experimental: as §1

[3] = target: kainic acid (KA) receptor; assay: Radioligand binding: tritiated kainate binding with washed synaptosomal membranes from the rat forebrain; conditions: tritiated kainate 5 nM, pH 7.4, mean ± standard error (n = 3), values marked ^c single experiment
Experimental: as §1

[4] = system: AMPA receptor; assay: Antagonism of AMPA-induced depolarization of rat cortical wedges; type: cell-based; conditions: for selective AMPA receptor antagonism (in words): cortical wedge; for IC50: AMPA 40 μM, mean ± standard error (n = 3), read-out: IC50 AMPA, antagonism of cortical wedge depolarization
Experimental: (§2) The depolarization of rat cortical wedges was used to test the selectivity and potency of the formula I compounds as AMPA antagonists using a technique similar to that described by Harrison and Simmonds. Harrison and Simmonds, Bri. J. Pharmacol., 84, 381-391 (1984). Generally, 4-ml aliquots of NMDA (40 μM), AMPA (40 μM), and kainate (10 μM) were superfused (2 ml/min.) on the grey matter at intervals of 15-20 minutes until stable responses were attained. The tissue was then exposed for 15 minutes to various concentrations of the formula I compounds before retesting the agonists. The IC50 values were calculated from linear regression of log dose-response curves, each point the mean of at least three observations on separate slices from more than one animal.

[5] = target: kainic acid (KA) receptor; assay: Antagonism of kainate-induced depolarization of rat cortical wedges; type: cell-based; conditions: kainate 10 μM, mean ± standard error (n = 3)
Experimental: as §2

[6] = target: NMDA receptor; assay: Antagonism of NMDA-induced depolarization of rat cortical wedges; type: cell-based; conditions: NMDA 40 μM, mean ± standard error (n = 3), read-out: IC50 NMDA, antagonism of cortical wedge depolarization
Experimental: as §2

[7] = Table I, racemic, [^3 H]AMPA 5 nM, 100 mM KSCN, mean ± standard error (n = 3), values marked ^c single experiment, read-out: IC50 AMPA, receptor binding
[8] = text summary of Table I, racemic, read-out: selectively displaced ^3 H-AMPA with IC50 values
[9] = Table II, enantiopure, [^3 H]AMPA 5 nM, 100 mM KSCN, mean ± standard error (n = 3), values marked ^c single experiment, read-out: IC50 AMPA, receptor binding

| Structure (SMILES) | IC50 [1, 7] [µM] | IC50 ([2]; Table I, racemic) [µM] | IC50 KA, receptor binding ([3]; Table I, racemic) [µM] | IC50 ([4]; Table III, racemic) [µM] | IC50 KA, antagonism of cortical wedge depolarization ([5]; Table III, racemic) [µM] | IC50 ([6]; Table III, racemic) [µM] | further results |
| --- | --- | --- | --- | --- | --- | --- | --- |
| O=CN(Cc1nnn[nH]1)[C@H]1CC[C@H]2CN[C@H](C(=O)O)C[C@@H]2C1 (racemic) [Compound 3, (3SR,4aRS,6SR,8aRS)-6-[N-(1(2)H-Tetrazole-5-yl)methylformamido]-decahydroisoquinoline-3-carboxylic Acid] | 29.1 | > 100 | > 100 | – | – | – | – |
| O=C(O)[C@@H]1C[C@H]2C[C@@H](CSc3nnn[nH]3)CC[C@H]2CN1 (racemic) [Compound 4, (3SR,4aRS,6SR,8aRS)-6-[2-(1(2)H-Tetrazole-5-yl)-2-thiaethyl]decahydroisoquinoline-3-carboxylic Acid] | 0.9 ± 0.14 | 29.4 ± 6.8 | 30.1 ± 1.6 | 3.3 ± 0.9 | > 100 | > 100 | IC50 [1, 8]: < 15 µM; selective AMPA receptor antagonism (in words) ([4]; Table III, racemic): selective AMPA receptor antagonists |
| O=C(O)[C@@H]1C[C@H]2C[C@H](CSc3nnn[nH]3)CC[C@H]2CN1 (racemic) [Compound 5, (3SR,4aRS,6RS,8aRS)-6-[2-(1(2)H-Tetrazole-5-yl)-2-thiaethyl]decahydroisoquinoline-3-carboxylic Acid] | 4.9 ± 0.4 | 47.9 ± 3.9 | 37.3 ± 2.3 | 6.1 ± 1.5 | > 100 | > 100 | IC50 [1, 8]: < 15 µM; selective AMPA receptor antagonism (in words) ([4]; Table III, racemic): selective AMPA receptor antagonists |
| O=C(O)[C@@H]1C[C@H]2C[C@@H](CCCc3nnn[nH]3)CC[C@H]2CN1 (racemic) [Compound 6, (3SR,4aRS,6SR,8aRS)-6-[(1(2)H-Tetrazole-5-yl)prop-1-yl]decahydroisoquinoline-3-carboxylic Acid] | 16.8 ± 0.46 | 27 ± 9.9 | 18.65 ± 0.33 | 22 ± 3.8 | – | – | – |
| O=C(O)[C@@H]1C[C@H]2C[C@@H](COCc3nnn[nH]3)CC[C@H]2CN1 (racemic) [Compound 7, (3SR,4aRS,6SR,8aRS)-6-[(1(2)H-Tetrazole-5-yl)methoxymethyl]decahydroisoquinoline-3-carboxylic Acid] | > 10 | > 10 | > 10 | 16 ± 1.4 | > 100 | > 100 | – |
| O=C(O)[C@@H]1C[C@H]2C[C@H](CCSc3nnn[nH]3)CC[C@H]2CN1 (racemic) [Compound 8, (3SR,4aRS,6RS,8aRS)-6-[3-(1(2)H-Tetrazole-5-yl)-3-thiaprop-1-yl]decahydroisoquinoline-3-carboxylic Acid] | 10.6 ± 2 | 49.2 ± 1.86 | 28.76 ± 2.21 | 6.8 ± 1.5 | 18.1 ± 5.1 | > 100 | – |
| O=C(O)[C@@H]1C[C@H]2C[C@@H](CCSc3nnn[nH]3)CC[C@H]2CN1 (racemic) [Compound 9, (3SR,4aRS,6SR,8aRS)-6-[3-(1(2)H-Tetrazole-5-yl)-3-thiaprop-1-yl]decahydroisoquinoline-3-carboxylic Acid] | 56.2 ± 4.6 | > 100 | > 100 | 32.2 ± 1.7 | > 100 | > 100 | – |
| O=C(O)[C@@H]1C[C@H]2C[C@@H](CCCCc3nnn[nH]3)CC[C@H]2CN1 (racemic) [Compound 10, (3SR,4aRS,6SR,8aRS)-6-[(1(2)H-Tetrazole-5-yl)but-1-yl]decahydroisoquinoline-3-carboxylic Acid] | 32 | > 100 | > 100 | 27.6 ± 3.1 | – | > 100 | – |
| O=C(O)CC[C@H]1CC[C@H]2CN[C@H](C(=O)O)C[C@H]2C1 (racemic) [Compound 11, (3SR,4aRS,6RS,8aRS)-6-(2-Carboxyethyl)-decahydroisoquinoline-3-carboxylic Acid] | 27.8 ± 0.6 | 43.9 ± 4.1 | > 100 | 42 ± 6.5 | > 100 | 57 ± 4.4 | – |
| O=C(O)[C@@H]1C[C@H]2C[C@@H](CCc3nn[nH]n3)CC[C@H]2CN1 (relative stereo) [Compound 1, (3 SR,4aRS,6RS,8aRS)-6-[2-(1(2)H-Tetrazole-5-yl)ethyl]decahydroisoquinoline-3-carboxylic Acid] | – | 26.4 ± 1.95 | 246.98 ± 7.5 | 6 ± 1 | 31.7 ± 4.4 | 61.3 ± 3 | – |
| O=C(O)[C@@H]1C[C@H]2C[C@H](CCc3nn[nH]n3)CC[C@H]2CN1 (relative stereo) [Compound 2, (3SR,4aRS,6SR,8aRS)-6-[2-(1(2)H-Tetrazole-5-yl)ethyl]decahydroisoquinoline-3-carboxylic Acid] | 59.6 ± 4.3 | 60.6 ± 24.8 | 180.0 ± 22.1 | – | – | > 100 | – |
| CS(=O)(=O)NC(=O)CC[C@H]1CC[C@H]2CN[C@H](C(=O)O)C[C@H]2C1 (relative stereo) [Compound 16, (3SR,4aRS,6RS,8aRS)-6-[2-((N-Methanesulfonyl)carboxamido)ethyl]decahydroisoquinoline-3-carboxylic Acid] | 80 | > 100 | > 100 | – | – | – | – |
| O=C(CC[C@H]1CC[C@H]2CN[C@H](C(=O)O)C[C@H]2C1)Nc1nn[nH]n1 (relative stereo) [Compound 17, (3SR,4aRS,6RS,8aRS)-6-[2-(N-(1(2)H-Tetrazole-5-yl)carboxamido)ethyl]decahydroisoquinoline-3-carboxylic Acid] | 45.7 | > 100 | > 100 | – | – | – | – |
| CC(Cc1nn[nH]n1)[C@H]1CC[C@H]2CN[C@H](C(=O)O)C[C@H]2C1 (stereo partly drawn) [Compound 18, (3SR,4aRS,6RS,8aRS)-6-[2-(1(2)H-Tetrazole-5-yl)-1-methylethyl]decahydroisoquinoline-3-carboxylic Acid] | 3.37 | 43.1 | 28.2 | – | – | – | IC50 [1, 8]: < 15 µM |
| O=C(O)[C@@H]1C[C@H]2C[C@H](CCc3nn[nH]n3)CC[C@H]2CN1 [Compound 22, (3S,4aR,6S,8a,R)-6-[2-(1(2)H-Tetrazole-5-yl)ethyl]decahydroisoquinoline-3-carboxylic Acid] | – | – | – | – | – | – | IC50 [1, 9]: 15.3 µM; IC50 KA, receptor binding ([3]; Table II, enantiopure): 85.3 µM; IC50 ([4]; Table IV, enantiopure): 21.9 ± 3.3 µM; IC50 KA, antagonism of cortical wedge depolarization ([5]; Table IV, enantiopure): 28.9 ± 9.2 µM; IC50 ([6]; Table IV, enantiopure): > 100 µM |
| O=C(O)[C@@H]1C[C@H]2C[C@@H](CS(=O)(=O)c3nc[nH]n3)CC[C@H]2CN1 [Compound 26, (3S,4aR,6S,8aR)-6-[(1(2-4)H-1,2,4-Triazole-5-yl)sulfonylmethyl]decahydroisoquinoline-3-carboxylic Acid] | – | – | – | – | – | – | IC50 [1, 9]: 0.63 µM; IC50 ([2]; Table II, enantiopure): > 100 µM; IC50 KA, receptor binding ([3]; Table II, enantiopure): > 100 µM |
| O=C(O)[C@H]1C[C@@H]2C[C@H](CS(=O)(=O)c3nc[nH]n3)CC[C@@H]2CN1 [Compound 27, (3R,4aS,6R,8aS)-6-[(1(2-4)H-1,2,4-Triazole-5-yl)sulfonylmethyl]decahydroisoquinoline-3-carboxylic Acid] | – | – | – | – | – | – | IC50 [1, 9]: 23.6 µM; IC50 ([2]; Table II, enantiopure): 60.9 µM; IC50 KA, receptor binding ([3]; Table II, enantiopure): > 100 µM |
